Laboratory results as given in patent US12660840B2, “Composition containing polyphenol” (CJ CHEILJEDANG CORPORATION, priority 2019, dated 2026).
Marks after values point to notes of the source that are not given here.

Columns and labels:
[1] = Oxidation stability of lipid by Rancimat method; settings: fish oil containing 2% of the polyphenol composition, 100° C., Table 9; for IP (min) induction period: air 20 L/hr; for AI Antioxidative Index: relative to lipid without composition
Description: Oxidation stability of lipid was analyzed by using the Rancimat (743 Metrohm Co., Herisau, Switzerland) method. 2.5 g of fish oil [Sigma-Aldrich Co. (St. Louis. MO, USA)] containing 2% of the polyphenol composition was put into a reaction vessel, and air was put at 20 L/hr into lipid on an aluminum heating block controlled at 100° C. to oxidize lipid. The volatile oxidation products generated during this time were transferred to an absorption vessel containing 60 mL of distilled water, and the degree of anti-oxidation was determined through the induction period automatically calculated in accordance with the change of electrical conductivity. For comparison of antioxidative activity, the Antioxidative Index (AI) was calculated by using a lipid sample with no addition of the polyphenol composition as a control group from the following formula: Further, L-ascorbic acid was used as a positive control. Antioxidative Index (AI)=IG/IC (IG: […])

[2] = DPPH radical scavenging activity; settings: 10 minutes reaction, absorbance 517 nm; Table 7
Description: 4 mM of DPPH solution in ethanol was prepared and used after the absorbance was adjusted to 1.000±0.1. 0.2 mL of each sample was added to a test tube, 2.8 mL of DPPH solution was mixed and allowed to react for 10 minutes, and the absorbance was measured at 517 nm by using a microplate reader (M2, Molecular Device, Canada). L-ascorbic acid was used as a positive control. The DPPH radical scavenging activity was calculated from the following formula: DPPH radical scavenging activity (%)=[1−(A/B)]×100 • (A: absorbance of a group with addition of sample, B: absorbance of a group without addition of sample)

polyphenol oxidase (PPO) = test: Polyphenol oxidase (PPO) inhibitory activity; format: biochemical; settings: pH 6.5, 25° C., catechin substrate, absorbance 420 nm; Table 11
Description: 1.7 mL of 50 mM phosphate buffer (pH 6.5) and 0.2 mL of PPO (4,276 units/mg) were mixed, and 0.1 mL of each polyphenol composition was added, and the mixture was left in a constant temperature water bath controlled at 25° C. for 15 minutes, and 1 mL of 4 mM catechin solution was added thereto as a substrate, respectively. Then, a change in absorbance for 5 minutes at 420 nm was measured by using a microplate reader (M2, Molecular Device, Canada). The enzyme inhibitory activity was expressed as absorbance reduction (%) represented by the following formula: Inhibition of PPO activity (%)=[1−(A/B)]×100 • [A: absorbance of sample, B: absorbance of blank solution]

[3] = Trimethylamine (TMA) reducing effect, SPME-GC/MS; settings: TMA 100 ppm standard aqueous solution; compositions T1-T6, 50 ppm of each polyphenol
Description: 30% concentration product of trimethylamine was purchased from Duksan Chemistry (Ansan, Republic of Korea) and used in the experiment. To determine the TMA-reducing effect, the standard reagent of 30% trimethylamine was diluted with distilled water to 100 ppm to prepare a standard aqueous solution. The prepared standard aqueous solution was used as a solvent to prepare a test polyphenol composition, and a trimethylamine-containing polyphenol composition sample was prepared and used for GC/MS analysis. The trimethylamine (TMA) component was determined from the polyphenol composition through the following method. […] The amount of TMA in the composition was calculated by comparing the peak area of 1.0 g of the sample and 1 g of 100 mg/L of TMA relative to each other and performing the comparative relative quantification of the contents of volatile aroma components in the sample. To determine the superiority of the combination of chlorogenic acid, caffeic acid, and quinic acid, the TMA reducing effect, which is known to be an effect of polyphenols, was evaluated. Specifically, the trimethylamine (TMA)-reducing effect was evaluated through the method of Experimental example 2 for each polyphenol composition prepared in Experimental example 1-2. […]

| PPO (%) inhibition of PPO activity (polyphenol oxidase (PPO)) | Structure (SMILES) | IP (min) induction period [1] | AI Antioxidative Index [1] | DPPH (%) radical scavenging activity [2] | Reduction (%) of trimethylamine (TMA) [3] |
| --- | --- | --- | --- | --- | --- |
| 19.47 ± 0.75^c % | O=C(O)[C@]1(O)C[C@@H](O)[C@@H](O)[C@H](O)C1 [Composition T3, Quinic acid] | 77.23 ± 1.05^e min | 1.04 ± 0.01^e | 0.60 ± 1.04^e % | 57.66% |
| 22.86 ± 0.70^a % | O=C1O[C@H]([C@@H](O)CO)C(O)=C1O [(+) control, L-ascorbic acid, reference compound] | 90.53 ± 1.37^c min | 1.22 ± 0.03^c | 81.07 ± 0.59^a % | – |
